Results on four compounds are retold here after publication PMC10215404, “Effect of Indole-Containing Pyrazino[2,1-b]quinazoline-3,6-diones in the Virulence of Resistant Bacteria” (Antibiotics, 2023).

Data set [1] deals with E. coli (ATCC 25922, SA/2, AG100, AG100A). The data set can be described thus: MIC determination, broth microdilution. The format is cell-based. The conditions noted are these: Escherichia coli, ATCC25922. From the text: (§1) Both reference and resistant strains used in this work were employed by our group for the screening of different families of compounds, such as xanthones and thioxanthones.

In another data set the test system is P. aeruginosa ATCC 27853. The data set can be described thus: MIC determination, broth microdilution. The settings on record: Pseudomonas aeruginosa, ATCC27853. The format is cell-based.
Description: as §1

For another data set, the system named is E. faecalis ATCC 29212. The data set can be described thus: MIC determination, broth microdilution. The conditions noted are these: Enterococcus faecalis. The data set is classed as cell-based.
Description: as §1

A further data set concerns S. aureus 66/1 (MRSA). The data set can be described thus: MIC determination, broth microdilution. The format is cell-based. The conditions noted are these: Staphylococcus aureus.
Description: as §1

A further data set has as its system S. aureus ATCC 29213. The data set can be described thus: MIC determination, broth microdilution. The format is cell-based. The settings on record: Staphylococcus aureus.
Description: as §1

For another data set, the system named is E. faecalis B3/101 (VRE). The data set can be described thus: MIC determination, broth microdilution. The data set is classed as cell-based. The settings on record: Enterococcus faecalis.
Description: as §1

The test system of another data set is S. aureus MRSA 272123. The data set can be described thus: MIC determination, broth microdilution. The format is cell-based. The settings on record: Staphylococcus aureus.
Description: as §1

The subject of data set [2] is NIH/3T3 mouse fibroblast cell line. The data set can be described thus: Cytotoxicity assay (MTT). The settings on record: NIH3T3, 24 h. The data set is classed as cell-based. The method, then:
The effects of increasing concentrations of compounds on cell growth were tested in 96-well flat-bottomed microtiter plates. The compounds were diluted in a volume of 100 μL of medium. Afterwards, 1 × 10^4 cells in 100 μL of medium were added to each well, with the exception of the medium control. In the case of NIH/3T3 cells, the compounds were added after seeding the cells at 37 °C overnight. The plates were incubated at 37 °C for 24 h; after the incubation period, 20 μL of MTT solution (from a 5 mg/mL stock) was added to each well. After 4 h of incubation at 37 °C, 100 μL of SDS solution (10% in 0.01 M HCl) was added to each well and the plates were incubated at 37 °C overnight. Cell growth was determined by measuring the optical density (OD) at 540 nm (ref. 630 nm) with a Multiscan EX ELISA reader. Inhibition of cell growth was determined as IC50 values, defined as the inhibitory dose that reduced the growth of the cells exposed to the tested compounds by 50%. IC50 values and the SD of triplicate experiments were calculated by using GraphPad Prism software version 5.00 for Windows with a nonlinear regression curve fit (GraphPad Software, San Diego, CA, USA; www.graphpad.com, accessed on 14 July 2022). Doxorubicin (from a 2 mg/mL stock solution, Teva Pharmaceuticals) was used as the positive control.

In another data set the test system is Vibrio harveyi. The settings on record: aqua-pathogenic Vibrio harveyi; literature, reference not given; cited from earlier work.
The test system of another data set is S. aureus 272123. The data set can be described thus: Real-time ethidium bromide accumulation assay (efflux pump inhibition). The settings on record: minute 60.
The next data set concerns H1N1. Details: method as in PMID 23758051. The settings on record: anti-viral; cited from earlier work.
Data set [3] concerns E. coli AG100A. The data set can be described thus: Real-time ethidium bromide accumulation assay (efflux pump inhibition). The settings on record: compound at 100 μM, minute 60.
For data set [4], the system named is E. coli AG100. Described as above. The conditions noted are these: minute 60.
The subject of a further data set is phytopathogenic fungi. Also noted: method as in PMID 22409377. The settings on record: several phytopathogenic fungi; cited from earlier work.
In data set [5] the test system is E. coli AG100A. The data set can be described thus: Biofilm formation, crystal violet method. The format is cell-based, Escherichia coli. The method, then: (§2) The antibiofilm effect of the tested compounds was evaluated using the crystal violet method on E. coli AG100, E. coli AG100A, and MRSA 272123. […] CCCP was used as a positive control.
(§3) The biofilm-forming ability of the S. aureus strains was studied in 96-well microtiter plates using TSB broth in the presence of compounds. The biofilm-forming ability of the E. coli strains was studied in 96-well microtiter plates using LB broth in the presence of the compounds. […] The final volume was 200 μL in each well. The positive control was CCCP at 50 µM. Plates were incubated for 48 h at 30 °C with gentle shaking at 100 rpm. After the incubation period, the medium was removed and the plate was washed with water to remove unattached cells. A total of 200 μL CV (0.1% [v/v]) was added to each wells and incubated for 15 min at room temperature. CV was discarded from the wells and the plate was washed with water again. Then, 200 μL of 70% ethanol was added to each well and the biofilm formation was determined by measuring the OD at 600 nm using a Multiscan EX ELISA plate reader (Thermo Labsystems, Cheshire, WA, USA). The antibiofilm effect of the compounds was expressed as the percentage (%) decrease in biofilm formation.

The subject of data set [6] is E. coli AG100. The data set can be described thus: Biofilm formation, crystal violet method. The format is cell-based, Escherichia coli. The settings on record: 50 μM. The method, then: as §2, §3
In the next data set the test system is Enterococcus faecalis. The settings on record: sensitive and vancomycin-resistant strains of E. faecalis; cited from earlier work.
The subject of data set [7] is human brain endothelial cell line (hCMEC/D3). Details: method as in PMID 27268269. The settings on record: cited from earlier work.
The test system of a further data set is Staphylococcus aureus. The conditions noted are these: sensitive and methicillin-resistant strains of S. aureus; cited from earlier work.
The subject of a further data set is E. faecalis PFi/2. The data set can be described thus: MIC determination, broth microdilution. The format is cell-based. The conditions noted are these: Enterococcus faecalis.
Description: as §1

The test system of the next data set is E. faecalis PSi/107. The data set can be described thus: MIC determination, broth microdilution. The data set is classed as cell-based. The settings on record: Enterococcus faecalis.
Description: as §1

The test system of data set [8] is E. coli AG100, E. coli AG100A, and MRSA 272123. The data set can be described thus: Biofilm formation, crystal violet method (overall statement). The data set is classed as cell-based. How it is done:
as §2, §3

Data set [9] has as its system S. aureus, including the MRSA strains. The data set can be described thus: MIC, summary over S. aureus strains. The settings on record: Staphylococcus aureus.
Description: (§4) The MIC of each compound was determined by the broth microdilution method, in accordance with the recommendations of the CLSI [48]. Two-fold serial dilutions of the compounds were prepared in Mueller–Hinton Broth 2 (MHB2–Sigma-Aldrich, St. Louis, MO, USA). Sterility and growth controls were included in each assay. Quality controls were performed with erythromycin for the Gram-positive bacterial strains and with colistin for the Gram-negative bacterial strains. Purity check and colony counts of the inoculum suspensions were also performed to ensure that the final inoculum density closely approximated 5 × 10^5 CFU/mL. The MIC was determined as the lowest concentration at which no visible growth was observed. […] The reported MIC results arose from at least three independent experiments.
Data set [10] deals with E. faecalis including VRE. The data set can be described thus: MIC, summary over E. faecalis strains. The settings on record: Enterococcus faecalis.
Description: as §4

Values after ≈ are worked out from the molar mass of the structure shown. Values joined by “and” are separate entries in the source; they are usually repeats but may differ in a detail not shown here. Equal entries are not always repeated.

For the compound `O=C1NCc2nc3ccccc3c(=O)n2[C@@H]1Cc1c[nH]c2ccccc12` [Compound 1, (R)-4-((1H-indol-3-yl)methyl)-1,2-dihydro-6H-pyrazino[2,1-b]quinazoline-3,6(4H)-dione], the MIC (in [1]; in the data set with P. aeruginosa ATCC 27853; against E. faecalis ATCC 29212 (ATCC29212); with S. aureus 66/1 (MRSA); in the data set on S. aureus ATCC 29213 (ATCC29213); with E. faecalis B3/101 (VRE)) was more than 100 µM each time. Moreover, the MIC was more than 100 µM in the data set with S. aureus MRSA 272123 and 32 µg/mL (≈ 92.9 µM) with Vibrio harveyi. The figures for the IC50 (in data set [2]; in the data set on H1N1) were more than 100 µM and 100 to 150 µM, respectively. Further, the “RFI ± SD” value in the data set with S. aureus 272123 (compound at 50 μM) is 0.23 ± 0.02; in the data set with S. aureus 272123 (compound at 100 μM), −0.01 ± 0.04; in the data set on E. coli AG100A [3], 0.12 ± 0.01; with E. coli AG100 [4] (compound at 50 μM), −0.24 ± 0.05; in the data set on E. coli AG100 [4] (compound at 100 μM) it was −0.04 ± 0.10.
As to `C[C@@H]1NC(=O)[C@@H](Cc2c[nH]c3ccccc23)n2c1nc1ccccc1c2=O` [Compound 2, (1S,4R)-4-((1H-indol-3-yl)methyl)-1-methyl-1,2-dihydro-6H-pyrazino[2,1-b]quinazoline-3,6(4H)-dione], the MIC (in [1]; against P. aeruginosa ATCC 27853; in the data set on E. faecalis ATCC 29212 (ATCC29212); in the data set with S. aureus 66/1 (MRSA); in the data set with S. aureus ATCC 29213 (ATCC29213); in the data set with E. faecalis B3/101 (VRE)) was more than 100 µM throughout. Also, the MIC with S. aureus MRSA 272123 was more than 100 µM; in the data set with phytopathogenic fungi, 12.5 to 25 µg/mL. Besides, the IC50 in data set [2] is more than 100 µM. In addition, the “RFI ± SD” value with S. aureus 272123 (compound at 50 μM) is given as −0.01 ± 0.02; in the data set with S. aureus 272123 (compound at 100 μM) it was 0.05 ±0.02; in the data set on E. coli AG100A [3], 0.26 ± 0.10; in the data set on E. coli AG100 [4] (compound at 50 μM), −0.31 ± 0.02; in the data set with E. coli AG100 [4] (compound at 100 μM), 0.17 ± 0.10. Moreover, in the data set on E. coli AG100A [5], the “decrease in biofilm formation” value turned out to be 65%. Further, the “antibiofilm effect (in words)” value in the data set with E. coli AG100 [6] is on record as “reduced the amount of biofilm”.
Turning to `CC(C)[C@@H]1NC(=O)[C@@H](C[C@]2(O)c3ccccc3N3C(=O)[C@@H](C)N[C@H]32)n2c1nc1ccccc1c2=O` [Compound 3, Neofiscalin A], the MIC in the data set on Enterococcus faecalis and with Staphylococcus aureus was 8 µg/mL (≈ 16.9 µM) in each case. Further, in [7], the “cytotoxicity (in words)” value is listed as “no cytotoxicity”.
Consider `CC(C)C[C@@H]1NC(=O)[C@H](Cc2c[nH]c3c(Cl)cccc23)n2c1nc1c(Cl)cc(Cl)cc1c2=O` [Compound 12d, (1S,4S)-8,10-dichloro-4-((7-chloro-1H-indol-3-yl)methyl)-1-isobutyl-1,2-dihydro-6H-pyrazino[2,1-b]quinazoline-3,6(4H)-dione], for which the MIC is more than 100 µM with E. faecalis PFi/2; 64 µM against E. faecalis ATCC 29212 (ATCC29212); 32 µg/mL in the data set on E. faecalis ATCC 29212 (ATCC29212, value in parentheses); more than 100 µM against E. faecalis PSi/107; 16 µM and 8 µg/mL in the data set on S. aureus 66/1 (MRSA); 32 µM in the data set on S. aureus ATCC 29213 (ATCC29213). Besides, the MIC was 16 µg/mL in the data set on S. aureus ATCC 29213 (ATCC29213, value in parentheses); 64 µM and 32 µg/mL in the data set with E. faecalis B3/101 (VRE); 25 µM and 12.6 µg/mL in the data set on S. aureus MRSA 272123; 16 to 32 µM (≈ 8.06 to 16.1 µg/mL) in data set [9]; 64 µM (≈ 32.2 µg/mL) in data set [10]. The IC50 in data set [2] was 47.2 ± 1.55 µM. Further, the figures for the “RFI ± SD” value in the data set with S. aureus 272123 (compound at 12.5 μM), in the data set on E. coli AG100A [3] and in the data set with E. coli AG100 [4] (compound at 100 μM) were 0.34 ± 0.01, 0.23 ± 0.05 and 0.32 ± 0.10, respectively. Further, the “antibiofilm capacity (in words)” value in data set [8] is “did not show any relevant activity”.
